Patent US4130709A, “Pleuromutilin glycoside derivatives” (Eli Lilly and Company, priority 1977, dated 1978)
≈ marks a conversion by molar mass, not a printed value.

How the values were obtained:
[1] = toxicity (LD50) on intraperitoneal injection in mice; conditions: mouse, in vivo, ip; intraperitoneal injection, mice
Treponema hyodysenteriae = experiment: in vitro agar plate test against Treponema hyodysenteriae; conditions: four days anaerobic
Spiroplasma citri = experiment: in vitro inhibition of Spiroplasma citri measured by a color reaction; type: cell-based
Procedure: In another important aspect, the compounds of this invention are active against Spiroplasmas. Spiroplasma citri is the causative agent of citrus-stubborn disease; another Spiroplasma, corn-stunt Spiroplasma, affects the growth of corn. Table VII summarizes the in vitro activity of representative compounds of the present invention (R^2 =H in this group) against Spiroplasma citri. In this test, inhibition of S. citri is measured by a color reaction. Red (R) includes complete inhibition; red-orange (RO) indicates partial inhibition; and yellow (Y) indicates no inhibition.

Pasteurella hemolytica = experiment: in vitro tests against Pasteurella hemolytica; type: cell-based
Pseudomonas sp. (fish) = experiment: in vitro activity against Pseudomonas sp. (fish); type: cell-based
Text: P. multocida, for example, is a causative agent of respiratory infection in cattle, poultry and swine. P. hemolytica is a major cause of respiratory disease in cattle. The activity of representative compounds of this invention (R^2 =H in group tested) against P. multocida and the Pseudomonas sp. is summarized in Table VI.

[2] = system: Bacteroides melaninogenicus 2736; experiment: standard agar-dilution test, anaerobic bacteria; type: cell-based; conditions: Bacteroides melaninogenicus 2736; 24-hour incubation; read-out: MIC
Actinomyces israelii = experiment: standard agar-dilution test, anaerobic bacteria; type: cell-based; conditions: 24-hour incubation
Bacteroides corrodens = experiment: standard agar-dilution test, anaerobic bacteria; type: cell-based; conditions: Eikenella corrodens; Bacteroides corrodens; 24-hour incubation; read-out: MIC
[3] = system: Pasteurella multocida (bovine); experiment: in vitro activity against Pasteurella multocida (bovine); type: cell-based
Text: (§1) The activity of representative compounds of this invention (R^2 =H in group tested) against P. multocida and the Pseudomonas sp. is summarized in Table VI.

[4] = system: Peptostreptococcus anaerobius; experiment: standard agar-dilution test, anaerobic bacteria; type: cell-based; conditions: 24-hour incubation
[5] = system: Peptostreptococcus intermedius; experiment: standard agar-dilution test, anaerobic bacteria; type: cell-based; conditions: Peptostreptococcus intermedius; 24-hour incubation; read-out: MIC
Clostridium septicum = experiment: standard agar-dilution test, anaerobic bacteria; type: cell-based; conditions: 24-hour incubation
Procedure: (§2) Table IV summarizes the activity of typical compounds of this invention, as determined by the standard agar-dilution test.
(§3) *Endpoint read after 24-hour incubation

[6] = system: Bacteroides thetaiotaomicron; experiment: standard agar-dilution test, anaerobic bacteria; type: cell-based; conditions: 24-hour incubation
Procedure: as §2, §3

[7] = system: Bacteroides melaninogenicus 1856/28; experiment: standard agar-dilution test, anaerobic bacteria; type: cell-based; conditions: Prevotella intermedia; Bacteroides melaninogenicus 1856/28; 24-hour incubation; read-out: MIC
[8] = system: Fusobacterium necrophorum; experiment: standard agar-dilution test, anaerobic bacteria; type: cell-based; conditions: 24-hour incubation, read-out: MIC
Bacteroides vulgatis = experiment: standard agar-dilution test, anaerobic bacteria; type: cell-based; conditions: Bacteroides vulgatis; 24-hour incubation; read-out: MIC
Bacteroides fragilis 111 = experiment: standard agar-dilution test, anaerobic bacteria; type: cell-based; conditions: Bacteroides fragilis 111; 24-hour incubation; read-out: MIC
[9] = system: Bacteroides fragilis 1936B; experiment: standard agar-dilution test, anaerobic bacteria; type: cell-based; conditions: Bacteroides fragilis 1936B; 24-hour incubation; read-out: MIC
[10] = system: Staphylococcus aureus (H-Heatley) NRRL B-314; experiment: in vitro turbidometric assay (Autoturb Microbiological Assay System) against Staphylococcus aureus; type: cell-based; conditions: nutrient broth pH 7, approximately 4 hours at 37° C., A-40104 factor A as standard
Procedure: The compounds are conveniently tested against a typical gram-positive organism, Staphylococcus aureus, using a turbidometric assay on a semi-automated system (Autoturb Microbiological Assay System, Elanco) described by N. R. Kuzel and F. W. Kavanagh in J. Pharmaceut. Sci, 60 (5), 764 and 767 (1971). In testing these compounds, the following parameters were used: Staphylococcus aureus (H-Heatley) NRRL B-314 in a nutrient broth medium (pH 7), incubated for approximately 4 hours at 37° C. Test samples and A-40104 factor A, which is used as a standard, were dissolved in water. The standard was presented to the Autoturb carrousel at concentrations of 1.25, 2.50, 3.75, 5.00 and 6.25 mcg/ml. Test compounds were diluted to contain approximately 2.5 to 5.0 mcg of activity per ml, as presented to the carrousel. The units of activity of some of the typical compounds of this invention (R^2 =H in group tested) in this in vitro assay are summarized in Table I

Clostridium perfringens = experiment: microbe, parasite or virus in culture; type: cell-based; conditions: 24 h
Peptococcus prevoti = experiment: standard agar-dilution test, anaerobic bacteria; type: cell-based; conditions: Peptococcus prevoti; 24-hour incubation; read-out: MIC
[11] = system: Pasteurella multocida (turkey); experiment: in vitro activity against Pasteurella multocida (turkey); type: cell-based
Text: as §1

[12] = system: Bacteroides fragilis 1877; experiment: standard agar-dilution test, anaerobic bacteria; type: cell-based; conditions: Bacteroides fragilis 1877; 24-hour incubation; read-out: MIC
Eubacterium aerofaciens = experiment: standard agar-dilution test, anaerobic bacteria; type: cell-based; conditions: Collinsella aerofaciens; Eubacterium aerofaciens; 24-hour incubation; read-out: MIC
Fusobacterium symbiosum = experiment: standard agar-dilution test, anaerobic bacteria; type: cell-based; conditions: Fusobacterium symbiosum; 24-hour incubation; read-out: MIC
[13] = system: Peptococcus asaccharolyticus; experiment: standard agar-dilution test, anaerobic bacteria; type: cell-based; conditions: Peptoniphilus asaccharolyticus, 24-hour incubation

With `CC[C@]1(C)C[C@@H](OC(=O)CS[C@@H]2OC[C@@H](O)[C@H](O)[C@H]2O)[C@]2(C)[C@H](C)CC[C@]3(CCC(=O)[C@H]32)[C@@H](C)[C@@H]1O` the LD50 [1] was over 1500 mg/kg, the inhibition of growth (Treponema hyodysenteriae; 0.5 mcg/ml agar concentration) was “inhibited growth” and the inhibition of growth (Treponema hyodysenteriae; 5.0 mcg/ml agar concentration) was “inhibited growth”. The inhibition of growth (Treponema hyodysenteriae; 50 mcg/ml agar concentration) was “inhibited growth”, the MIC (Spiroplasma citri; Spiroplasma citri, in vitro, read-out: inhibits the growth of S. citri at levels as low as) was at least 0.01 µg/mL and the MIC (Pasteurella hemolytica) was 10.4 µg/mL (≈ 19.7 µM).
Compound `C=C[C@]1(C)C[C@@H](OC(=O)CS[C@@H]2OC[C@@H](OC(C)=O)[C@H](OC(C)=O)[C@H]2OC(C)=O)[C@]2(C)[C@H](C)CC[C@]3(CCC(=O)[C@H]32)[C@@H](C)[C@@H]1O` [Compound 1, 14-deoxy-14-[(2,3,4-tri-O-acetyl-β-D-xylopyranosyl)thioacetoxy]mutilin] has an MIC (Pseudomonas sp. (fish)) of 12.5 µg/mL (≈ 19.1 µM), an MIC [2] of 2 µg/mL (≈ 3.06 µM) and an MIC (Actinomyces israelii) of at most 0.5 µg/mL. For the same compound, the MIC (Bacteroides corrodens) was 4 µg/mL (≈ 6.13 µM), the MIC [3] was under 50 µg/mL and the MIC [4] was at most 0.5 µg/mL. For the same compound, the MIC [5] was at most 0.5 µg/mL, the MIC (Clostridium septicum) was at most 0.5 µg/mL and the MIC [6] was 8 µg/mL (≈ 12.3 µM). For the same compound, the MIC [7] was over 128 µg/mL, the MIC [8] was at most 0.5 µg/mL and the MIC (Bacteroides vulgatis) was 4 µg/mL (≈ 6.13 µM). For the same compound, the MIC (Bacteroides fragilis 111) was 8 µg/mL (≈ 12.3 µM), the MIC [9] was 8 µg/mL (≈ 12.3 µM) and the “Units of Activity” value [10] was 568 to 579 µg/mg. For the same compound, the “Activity (color reaction)” value (Spiroplasma citri; 0.01 ppm) was “Y,RO”, the “Activity (color reaction)” value (Spiroplasma citri; 0.05 ppm) was “--,R” and the “Activity (color reaction)” value (Spiroplasma citri; 0.1 ppm) was “R,R”. The “Activity (color reaction)” value (Spiroplasma citri; 1.0 ppm) was “R,R”, the MIC (Clostridium perfringens) was 16 µg/mL (≈ 24.5 µM) and the MIC (Peptococcus prevoti) was at most 0.5 µg/mL. It also gave an MIC [11] of 50 µg/mL (≈ 76.6 µM), an MIC [12] of 4 µg/mL (≈ 6.13 µM) and an MIC (Eubacterium aerofaciens) of 16 µg/mL (≈ 24.5 µM). For the same compound, the MIC (Fusobacterium symbiosum) was 4 µg/mL (≈ 6.13 µM) and the MIC [13] was at most 0.5 µg/mL.
